Experiments:
HL-60(TB) = assay: NCI 60 cell panel SRB screen; assay type: cell-based; conditions: Homo sapiens
RXF 393 = assay: NCI 60 cell panel SRB screen; assay type: cell-based; conditions: Homo sapiens
NCI-H522 = assay: NCI 60 cell panel SRB screen; assay type: cell-based; conditions: Homo sapiens
NCI-H23 = assay: NCI 60 cell panel SRB screen; assay type: cell-based; conditions: Homo sapiens
SK-MEL-28 = assay: NCI 60 cell panel SRB screen; assay type: cell-based; conditions: Homo sapiens
OVCAR-8 = assay: NCI 60 cell panel SRB screen; assay type: cell-based; conditions: Homo sapiens
A498 = assay: NCI 60 cell panel SRB screen; assay type: cell-based; conditions: Homo sapiens
COLO 205 = assay: NCI 60 cell panel SRB screen; assay type: cell-based; conditions: Homo sapiens
UO-31 = assay: NCI 60 cell panel SRB screen; assay type: cell-based; conditions: Homo sapiens
NCI-H460 = assay: NCI 60 cell panel SRB screen; assay type: cell-based; conditions: Homo sapiens
OVCAR-4 = assay: NCI 60 cell panel SRB screen; assay type: cell-based; conditions: Homo sapiens
IGROV1 = assay: NCI 60 cell panel SRB screen; assay type: cell-based; conditions: Homo sapiens, IGROV-1
full NCI 60 cell panel = assay: NCI 60 cell panel SRB screen, whole panel; assay type: cell-based, human; conditions: Homo sapiens, 60 cell, NCI 5-log dose, full 60 cell panel; read-out: GI50 values, range over the tested cell lines
SF-539 = assay: NCI 60 cell panel SRB screen; assay type: cell-based, human
SW-620 = assay: NCI 60 cell panel SRB screen; assay type: cell-based; conditions: Homo sapiens
MDA-MB-435 = assay: NCI 60 cell panel SRB screen; assay type: cell-based; conditions: Homo sapiens
NCI/ADR-RES = assay: NCI 60 cell panel SRB screen; assay type: cell-based; conditions: Homo sapiens
SK-MEL-2 = assay: NCI 60 cell panel SRB screen; assay type: cell-based
EKVX = assay: NCI 60 cell panel SRB screen; assay type: cell-based, human
786-0 = assay: NCI 60 cell panel SRB screen; assay type: cell-based; conditions: Homo sapiens
[1] = 5 log dose, 48 h, read-out: LC50 (the source's name)
[2] = single dose 10 μM, read-out: percent cell growth promotion
[3] = Homo sapiens, SF-539, 5 log dose

## COc1cccc(NCc2nnc(Nc3ccc(Cl)cc3)c3ccccc23)c1 [Compound 16d, N-(4-Chlorophenyl)-4-((3-methoxyphenylamino)methyl)phthalazin-1-amine]
HL-60(TB); 5 log dose
  GI50: 3.78 µM
  IC (TGI): 13.1 µM
HL-60(TB); [1]
  CC50: > 25 µM
HL-60(TB); [2]
  activity at 10 µM: -27.1%
RXF 393; RXF 393, 5 log dose
  GI50: 2160 nM
  IC (TGI): 6.11 µM
RXF 393; RXF 393, 5 log dose, 48 h, read-out: LC50 (the source's name)
  CC50: 15.9 µM
RXF 393; RXF 393, single dose 10 μM, read-out: percent cell growth promotion
  activity at 10 µM: -11.6%
NCI-H522; NCI-H522, 5 log dose
  GI50: 320 nM
  IC (TGI): 3.31 µM
NCI-H522; NCI-H522, 5 log dose, 48 h, read-out: LC50 (the source's name)
  CC50: 13.1 µM
NCI-H522; NCI-H522, single dose 10 μM, read-out: percent cell growth promotion
  activity at 10 µM: -43.8%
NCI-H23; NCI-H23, 5 log dose
  GI50: 1220 nM
  IC (TGI): 6.74 µM
NCI-H23; NCI-H23, 5 log dose, 48 h, read-out: LC50 (the source's name)
  CC50: 24.6 µM
NCI-H23; NCI-H23, single dose 10 μM, read-out: percent cell growth promotion
  activity at 10 µM: 2.05%
SK-MEL-28; SK-MEL-28
  GI50: 2620 nM
SK-MEL-28; SK-MEL-28, read-out: TGI
  IC (TGI): 6.17 µM
SK-MEL-28; SK-MEL-28, read-out: percent cell growth promotion
  activity at 10 µM: -16.1%
SK-MEL-28; SK-MEL-28, 5 log dose, 48 h, read-out: LC50 (the source's name)
  CC50: 14.5 µM
OVCAR-8; OVCAR-8, 5 log dose
  GI50: 3.61 µM
  IC (TGI): 14.7 µM
OVCAR-8; OVCAR-8, 5 log dose, 48 h, read-out: LC50 (the source's name)
  CC50: > 25 µM
OVCAR-8; OVCAR-8, single dose 10 μM, read-out: percent cell growth promotion
  activity at 10 µM: 3.02%
A498; A498, 5 log dose
  GI50: 1270 nM
  IC (TGI): 4.42 µM
A498; A498, 5 log dose, 48 h, read-out: LC50 (the source's name)
  CC50: 11.5 µM
A498; A498, single dose 10 μM, read-out: percent cell growth promotion
  activity at 10 µM: -26.8%
COLO 205; COLO 205, 5 log dose
  GI50: 490 nM
  IC (TGI): 4.01 µM
COLO 205; COLO 205, 5 log dose, 48 h, read-out: LC50 (the source's name)
  CC50: 15.4 µM
COLO 205; COLO 205, single dose 10 μM, read-out: percent cell growth promotion
  activity at 10 µM: -22.2%
UO-31; UO-31, 5 log dose
  GI50: 600 nM
  IC (TGI): 5.28 µM
UO-31; UO-31, 5 log dose, 48 h, read-out: LC50 (the source's name)
  CC50: > 25 µM
UO-31; UO-31, single dose 10 μM, read-out: percent cell growth promotion
  activity at 10 µM: -42.5%
NCI-H460; NCI-H460, 5 log dose
  GI50: 2690 nM
  IC (TGI): 7.15 µM
NCI-H460; NCI-H460, 5 log dose, 48 h
  LC50 (concentration causing 50% cell kill): 19 µM
NCI-H460; NCI-H460, single dose 10 μM, read-out: percent cell growth promotion
  activity at 10 µM: 0.1%
OVCAR-4; OVCAR-4, 5 log dose
  GI50: 1330 nM
  IC (TGI): 17.6 µM
OVCAR-4; OVCAR-4, 5 log dose, 48 h, read-out: LC50 (the source's name)
  CC50: > 25 µM
OVCAR-4; OVCAR-4, single dose 10 μM, read-out: percent cell growth promotion
  activity at 10 µM: 17.2%
IGROV1; IGROV1, 5 log dose
  GI50: 900 nM
  IC (TGI): 6.3 µM
IGROV1; IGROV1, 5 log dose, 48 h, read-out: LC50 (the source's name)
  CC50: > 25 µM
IGROV1; IGROV1, single dose 10 μM, read-out: percent cell growth promotion
  activity at 10 µM: 1.51%
Full NCI 60 cell panel
  GI50: 0.15 to 8.41 µM
SF-539; [3]
  GI50: 3.07 µM
  IC (TGI): 6.56 µM
SF-539; Homo sapiens, SF-539, 5 log dose, 48 h, read-out: LC50 (the source's name)
  CC50: 14 µM
SF-539; SF-539, single dose 10 μM
  percent cell growth promotion: -10.19%
SW-620; SW-620, 5 log dose
  GI50: 2980 nM
  IC (TGI): 8.13 µM
SW-620; SW-620, 5 log dose, 48 h, read-out: LC50 (the source's name)
  CC50: 22.2 µM
SW-620; SW-620, single dose 10 μM, read-out: percent cell growth promotion
  activity at 10 µM: 11.9%
MDA-MB-435; MDA-MB-435
  GI50: 730 nM
MDA-MB-435; MDA-MB-435, read-out: TGI
  IC (TGI): 4.38 µM
MDA-MB-435; MDA-MB-435, read-out: percent cell growth promotion
  activity at 10 µM: -10.3%
MDA-MB-435; MDA-MB-435, 5 log dose, 48 h, read-out: LC50 (the source's name)
  CC50: 12 µM
NCI/ADR-RES; 5 log dose
  GI50: 2550 nM
  IC (TGI): > 25 µM
NCI/ADR-RES; [1]
  CC50: > 25 µM
NCI/ADR-RES; [2]
  activity at 10 µM: -5.42%
SK-MEL-2; Homo sapiens
  GI50: 700 nM
SK-MEL-2; Homo sapiens, read-out: TGI
  IC (TGI): 3.98 µM
SK-MEL-2; Homo sapiens, SK-MEL-2, 5 log dose, 48 h, read-out: LC50 (the source's name)
  CC50: 11 µM
SK-MEL-2; SK-MEL-2, single dose 10 μM
  percent cell growth promotion: -34.44%
EKVX; Homo sapiens, 5 log dose
  GI50: 580 nM
  IC (TGI): 6.4 µM
EKVX; Homo sapiens, 5 log dose, 48 h
  LC50: > 25 µM
EKVX; single dose 10 μM
  percent cell growth promotion: -0.28%
786-0; 786-0, 5 log dose
  GI50: 2220 nM
  IC (TGI): 7.63 µM
786-0; 786-0, 5 log dose, 48 h, read-out: LC50 (the source's name)
  CC50: 24.4 µM
786-0; 786-0, single dose 10 μM, read-out: percent cell growth promotion
  activity at 10 µM: -5.76%
